ChEMBL document CHEMBL1201862, “PubChem BioAssay data set” (2004)
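48-hour exposure; five concentrations; linearly interpolated endpoints. At the GI50, growth is halved.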 The source made the active and inactive calls. No stated cut-off is given here; in the data, active = GI50 up to about 1.1 µM and inactive = higher.

What was measured:
Assay in all cases: inhibition of tumour cell growth, NCI panel, 48 h
OVCAR-4 = tested on: OVCAR-4
NCI-H23 = tested on: NCI-H23
SK-MEL-2 = tested on: SK-MEL-2
OVCAR-3 = tested on: OVCAR-3
IGROV-1 = tested on: IGROV-1
TK-10 = tested on: TK-10
OVCAR-8 = tested on: OVCAR-8
A498 = tested on: A498
A549 = tested on: A549
SF-295 = tested on: SF-295
SNB-19 = tested on: SNB-19
MCF7 = tested on: MCF7
HOP-62 = tested on: HOP-62
U-251 = tested on: U-251
MDA-MB-231 = tested on: MDA-MB-231
SN12C = tested on: SN12C
KM12 = tested on: KM12
COLO 205 = tested on: COLO 205
SK-MEL-5 = tested on: SK-MEL-5
NCI-H460 = tested on: NCI-H460

Measured: GI50

O=C(O)c1ccccn1 [2-PICOLINIC ACID]
inactive: OVCAR-4 > 100 µM | NCI-H23 > 100 µM | SK-MEL-2 > 100 µM | OVCAR-3 > 100 µM | IGROV-1 > 100 µM | TK-10 > 100 µM | OVCAR-8 > 100 µM | A498 > 100 µM | A549 > 100 µM | SF-295 > 100 µM | SNB-19 > 100 µM | MCF7 > 100 µM | HOP-62 > 100 µM | U-251 > 100 µM | MDA-MB-231 > 100 µM | SN12C > 100 µM | KM12 > 100 µM | COLO 205 > 100 µM | SK-MEL-5 > 100 µM | NCI-H460 > 100 µM

Cc1cc(S(=O)(=O)n2ccnc2O)c(SCCCN(C)C)cc1Cl
inactive: OVCAR-4 > 100 µM | NCI-H23 > 100 µM | SK-MEL-2 > 100 µM | OVCAR-3 > 100 µM | IGROV-1 > 100 µM | TK-10 > 100 µM | OVCAR-8 > 100 µM | A498 > 100 µM | A549 > 100 µM | SF-295 > 100 µM | SNB-19 > 100 µM | MCF7 > 100 µM | HOP-62 > 100 µM | U-251 > 100 µM | MDA-MB-231 > 100 µM | SN12C > 100 µM | KM12 > 100 µM | COLO 205 > 100 µM | SK-MEL-5 > 100 µM | NCI-H460 > 100 µM

CC1OC(OC2C(CO)OC(O[C@H]3CC[C@@]4(C)C(=CC[C@H]5[C@@H]6C[C@@H]7O[C@](O)(CC[C@H](CO)COC8OC(CO)C(O)C(O)C8O)[C@@H](C)[C@@H]7[C@@]6(C)CC[C@@H]54)C3)C(OC3OC(C)C(O)C(O)C3O)C2O)C(O)C(O)C1O (stereo not given in full)
inactive: OVCAR-4 > 100 µM | NCI-H23 > 100 µM | SK-MEL-2 > 100 µM | OVCAR-3 > 100 µM | IGROV-1 > 100 µM | TK-10 > 100 µM | OVCAR-8 > 100 µM | A498 > 100 µM | A549 > 100 µM | SF-295 > 100 µM | SNB-19 > 100 µM | MCF7 > 100 µM | HOP-62 > 100 µM | U-251 > 100 µM | MDA-MB-231 > 100 µM | SN12C > 100 µM | KM12 > 100 µM | COLO 205 > 100 µM | SK-MEL-5 > 100 µM | NCI-H460 > 100 µM
